# Measured values reported in ChEMBL document CHEMBL3046135, “Iodine (III)-mediated synthesis of some 2-aryl/hetarylbenzoxazoles as antibacterial/antifungal agents” (2010).
# Calls of active or inactive are those of the source. The rule behind the calls is not given here.
# What was measured:
# Type in all cases: functional
# [1] = test system: Pseudomonas putida; assay: Antibacterial activity against Pseudomonas putida at 100 ug/ml after 24 hr by agar well diffusion method
# [2] = test system: Pseudomonas putida; assay: Antibacterial activity against Pseudomonas putida at 50 ug/ml after 24 hr by agar well diffusion method
# [3] = test system: Pseudomonas putida; assay: Antibacterial activity against Pseudomonas putida at 10 ug/ml after 24 hr by agar well diffusion method
# [4] = test system: Escherichia coli; assay: Antibacterial activity against Escherichia coli MTCC 51 at 100 ug/ml after 24 hr by agar well diffusion method
# [5] = test system: Escherichia coli; assay: Antibacterial activity against Escherichia coli MTCC 51 at 50 ug/ml after 24 hr by agar well diffusion method
# [6] = test system: Escherichia coli; assay: Antibacterial activity against Escherichia coli MTCC 51 at 10 ug/ml after 24 hr by agar well diffusion method
# [7] = test system: Geobacillus stearothermophilus; assay: Antibacterial activity against Geobacillus stearothermophilus MTCC 8508 at 100 ug/ml after 24 hr by agar well diffusion method
# [8] = test system: Geobacillus stearothermophilus; assay: Antibacterial activity against Geobacillus stearothermophilus MTCC 8508 at 50 ug/ml after 24 hr by agar well diffusion method
# [9] = test system: Geobacillus stearothermophilus; assay: Antibacterial activity against Geobacillus stearothermophilus MTCC 8508 at 10 ug/ml after 24 hr by agar well diffusion method
# [10] = test system: Bacillus subtilis; assay: Antibacterial activity against Bacillus subtilis MTCC 121 at 100 ug/ml after 24 hr by agar well diffusion method
# [11] = test system: Bacillus subtilis; assay: Antibacterial activity against Bacillus subtilis MTCC 121 at 50 ug/ml after 24 hr by agar well diffusion method
# [12] = test system: Bacillus subtilis; assay: Antibacterial activity against Bacillus subtilis MTCC 121 at 10 ug/ml after 24 hr by agar well diffusion method
# [13] = test system: Aspergillus niger; assay: Antifungal activity against Aspergillus niger at 100 ug/ml after 96 hr
# [14] = test system: Aspergillus niger; assay: Antifungal activity against Aspergillus niger at 10 ug/ml after 96 hr
# [15] = test system: Aspergillus niger; assay: Antifungal activity against Aspergillus niger at 50 ug/ml after 96 hr
# [16] = test system: Aspergillus flavus; assay: Antifungal activity against Aspergillus flavus at 100 ug/ml after 96 hr
# [17] = test system: Aspergillus flavus; assay: Antifungal activity against Aspergillus flavus at 50 ug/ml after 96 hr
# [18] = test system: Aspergillus flavus; assay: Antifungal activity against Aspergillus flavus at 10 ug/ml after 96 hr
Structure (SMILES),diameter of the inhibition zone (DIZ) [1],diameter of the inhibition zone (DIZ) [2],diameter of the inhibition zone (DIZ) [3],diameter of the inhibition zone (DIZ) [4],diameter of the inhibition zone (DIZ) [5],diameter of the inhibition zone (DIZ) [6],diameter of the inhibition zone (DIZ) [7],diameter of the inhibition zone (DIZ) [8],diameter of the inhibition zone (DIZ) [9],diameter of the inhibition zone (DIZ) [10],diameter of the inhibition zone (DIZ) [11],diameter of the inhibition zone (DIZ) [12],inhibition at 100 µg/mL [13],inhibition at 10 µg/mL [14],inhibition at 50 µg/mL [15],inhibition at 100 µg/mL [16],inhibition at 50 µg/mL [17],inhibition at 10 µg/mL [18]
Cc1ccsc1-c1nc2cc(Cl)ccc2o1 [5-CHLORO-2-(3-METHYLTHIOPHEN-2-YL)BENZO[D]OXAZOLE],35.06%,25.67%,12.12%,33.17%,24.56%,10.33%,31.84%,23.44%,12.66%,29.33%,21.67%,10.34%,76.5%,17.5%,47%,84.2%,36.8%,21.1%
COc1cc(-c2nc3cc(Cl)ccc3o2)ccc1O [4-(5-CHLOROBENZO[D]OXAZOL-2-YL)-2-METHOXYPHENOL],37.33%,26.33%,12.66%,31.33%,21.43%,9.33%,31.74%,21.33%,10.66%,31.33%,20.43%,9.33%,21.9%,8.93%,5.88%,86.2%,51.4%,29%
Cc1ccc(-c2nc3ccccc3o2)s1,35.45%,22.33%,13.47%,34.29%,21.74%,12.45%,19.66%,12.66%,inactive,17.33%,11.33%,inactive,16.6%,4.89%,5.23%,88%,51.6%,24.3%
Cc1ccc(-c2nc3cc(Cl)ccc3o2)cc1,73.47%,54.56%,14.22%,43.33%,32.77%,18.62%,43.33%,30.87%,17.92%,42.13%,31.37%,17.22%,21.4%,4.19%,7.47%,66.9%,43.2%,20.1%
Cc1ccc(-c2nc3cc(Cl)ccc3o2)s1 [5-CHLORO-2-(5-METHYLTHIOPHEN-2-YL)BENZO[D]OXAZOLE],32.66%,18.33%,inactive,31.74%,17.44%,inactive,18.47%,12.66%,inactive,16.66%,10.33%,inactive,71.9%,12.4%,63.9%,37.5%,24.9%,13.7%
c1csc(-c2nc3ccccc3o2)c1,33.33%,24.34%,9.66%,36.66%,26.28%,11.66%,31.33%,20.43%,10.33%,31.72%,21.26%,12.66%,82.3%,41.7%,64.7%,88.5%,63.1%,21.1%
Clc1ccc2oc(-c3cccnc3)nc2c1,35.33%,25.33%,9.66%,36.74%,27.33%,12.66%,32.33%,21.43%,11.33%,33.33%,22.16%,13.33%,76.5%,17.6%,41.7%,78.9%,26.3%,15.8%
O=[N+]([O-])c1ccc(-c2nc3cc(Cl)ccc3o2)cc1,31.16%,18.13%,inactive,30.24%,17.14%,inactive,19.37%,12.26%,inactive,17.22%,10.13%,inactive,73.6%,43.2%,66.9%,78.5%,49.6%,19.9%
Clc1ccc2oc(-c3cccs3)nc2c1,44.77%,33.66%,19.66%,43.33%,31.77%,17.74%,39.66%,32.66%,21.33%,41.66%,30.53%,19.66%,11.8%,4.89%,5.88%,84.2%,47.4%,21.1%
C[C@@H]1C[C@@H]([C@H](O)CC2CC(=O)NC(=O)C2)C(=O)[C@@H](C)C1 [CYCLOHEXIMIDE],,,,,,,,,,,,,35.3%,11.8%,23.5%,78.9%,63.1%,15.8%
Clc1ccc2oc(-c3ccccc3)nc2c1,76.33%,57.66%,15.21%,45.33%,33.87%,19.92%,36.44%,27.21%,10.66%,36.74%,26.47%,10.21%,21.9%,8.93%,5.88%,86.2%,51.4%,29%
O=C(N[C@H](CO)[C@H](O)c1ccc([N+](=O)[O-])cc1)C(Cl)Cl [CHLORAMPHENICOL],71.24%,43.4%,19.33%,65.4%,50.4%,20.33%,77.2%,53.2%,25.33%,64.2%,47.2%,26.33%,,,,,,
